Drawing on PMC6837725, this text covers ring closure, isolated yield for 14 compounds.

This data set can be described thus: Intramolecular Suzuki-Miyaura C(sp3)-C(sp2) coupling (cis-4-chlorocyclobut-2-ene carboxylate + E-vinyl-BPin) followed by spontaneous 4pi-electrocyclic ring opening to the (E,E,E)-trienoate macrolactone; Pd(PPh3)4 10 mol%, Cs2CO3 5 equiv. The settings on record: 19-membered ring, THF/H2O 3:1, 2.0 mM, 25.0 °C.

As for `C[C@@H]1C(=O)NCC/C=C/C=C/C=C/C(=O)O[C@@H](C)CC(=O)NC[C@@H]1O[Si](C)(C)C(C)(C)C`, the ring closure, isolated yield (from C[C@H](C(=O)NCC/C=C/B1OC(C)(C)C(C)(C)O1)[C@H](CNC(=O)C[C@H](C)OC(=O)C1C=CC1Cl)O[Si](C)(C)C(C)(C)C) is 84%.
With `C/C(=C\C=C\c1ccc(C)cc1)[C@H]1CC(=O)NC[C@H](O[Si](C)(C)C(C)(C)C)[C@H](C)C(=O)NCC/C=C/C=C/C=C/C(=O)O1` [cis-31j -> 32j (FR7, p-tolyl-dienyl)], where the note is “from C/C(=C\C=C\c1ccc(C)cc1)[C@@H](CC(=O)NC[C@H](O[Si](C)(C)C(C)(C)C)[C@H](C)C(=O)NCC/C=C/B1OC(C)(C)C(C)(C)O1)OC(=O)C1C=CC1Cl”, the ring closure, isolated yield amounted to 20%.
For the compound `C[C@@H]1C(=O)NCC/C=C/C=C/C=C/C(=O)O[C@@H](c2ccc3ccccc3c2)CC(=O)NC[C@@H]1O[Si](C)(C)C(C)(C)C` [cis-31n -> 32n (FR11, 2-naphthyl)], the ring closure, isolated yield (from C[C@H](C(=O)NCC/C=C/B1OC(C)(C)C(C)(C)O1)[C@H](CNC(=O)C[C@@H](OC(=O)C1C=CC1Cl)c1ccc2ccccc2c1)O[Si](C)(C)C(C)(C)C) was 51%.
Regarding `CCCCCCC/C=C/C=C(\C)[C@H]1CC(=O)NC[C@H](O[Si](C)(C)C(C)(C)C)CC(=O)NCC/C=C/C=C/C=C/C(=O)O1` [cis-31f -> 32f (FR3, C12-desmethyl)], under “from CCCCCCC/C=C/C=C(\C)[C@@H](CC(=O)NC[C@@H](CC(=O)NCC/C=C/B1OC(C)(C)C(C)(C)O1)O[Si](C)(C)C(C)(C)C)OC(=O)C1C=CC1Cl”, the ring closure, isolated yield was 73%.
For the compound `CCCCCCC/C=C/C=C(\C)[C@H]1CC(=O)NCCCC(=O)NCC/C=C/C=C/C=C/C(=O)O1` [cis-31g -> FR4 (no C12-Me, no C13-O)], the ring closure, isolated yield (from CCCCCCC/C=C/C=C(\C)[C@@H](CC(=O)NCCCC(=O)NCC/C=C/B1OC(C)(C)C(C)(C)O1)OC(=O)C1C=CC1Cl) is 55%.
As for `C[C@@H]1C(=O)NCC/C=C/C=C/C=C/C(=O)O[C@@H](c2ccc(Br)cc2)CC(=O)NC[C@@H]1O[Si](C)(C)C(C)(C)C` [cis-31l -> 32l (FR9, 4-bromophenyl)], under “from C[C@H](C(=O)NCC/C=C/B1OC(C)(C)C(C)(C)O1)[C@H](CNC(=O)C[C@@H](OC(=O)C1C=CC1Cl)c1ccc(Br)cc1)O[Si](C)(C)C(C)(C)C”, the ring closure, isolated yield was 58%.
As to `C/C(=C\C=C\c1ccc(C(F)(F)F)cc1)[C@H]1CC(=O)NC[C@H](O[Si](C)(C)C(C)(C)C)[C@H](C)C(=O)NCC/C=C/C=C/C=C/C(=O)O1` [cis-31k -> 32k (FR8, p-CF3-phenyl-dienyl)], the ring closure, isolated yield (from C/C(=C\C=C\c1ccc(C(F)(F)F)cc1)[C@@H](CC(=O)NC[C@H](O[Si](C)(C)C(C)(C)C)[C@H](C)C(=O)NCC/C=C/B1OC(C)(C)C(C)(C)O1)OC(=O)C1C=CC1Cl) came to 47%.
For `CCCCCCC/C=C/C=C(\C)[C@H]1CC(=O)NC[C@H](O[Si](C)(C)C(C)(C)C)[C@H](C)C(=O)NCC/C=C/C=C/C=C/C(=O)O1` [cis-31a -> 32a (FR252921)], for the setting “from CCCCCCC/C=C/C=C(\C)[C@@H](CC(=O)NC[C@H](O[Si](C)(C)C(C)(C)C)[C@H](C)C(=O)NCC/C=C/B1OC(C)(C)C(C)(C)O1)OC(=O)C1C=CC1Cl”, the ring closure, isolated yield was 74%.
For the compound `CCCCCCCCC/C=C/C=C(\C)[C@H]1CC(=O)NC[C@H](O[Si](C)(C)C(C)(C)C)[C@H](C)C(=O)NCC/C=C/C=C/C=C/C(=O)O1` [cis-31b -> 32b (FR252922)], the ring closure, isolated yield (from CCCCCCCCC/C=C/C=C(\C)[C@@H](CC(=O)NC[C@H](O[Si](C)(C)C(C)(C)C)[C@H](C)C(=O)NCC/C=C/B1OC(C)(C)C(C)(C)O1)OC(=O)C1C=CC1Cl) is 82%.
Consider `C/C(=C\C=C\c1ccccc1)[C@H]1CC(=O)NC[C@H](O[Si](C)(C)C(C)(C)C)[C@H](C)C(=O)NCC/C=C/C=C/C=C/C(=O)O1` [cis-31i -> 32i (FR6, Ph-dienyl)], for which, for the setting “from C/C(=C\C=C\c1ccccc1)[C@@H](CC(=O)NC[C@H](O[Si](C)(C)C(C)(C)C)[C@H](C)C(=O)NCC/C=C/B1OC(C)(C)C(C)(C)O1)OC(=O)C1C=CC1Cl”, the ring closure, isolated yield is 80%.
In the case of `CCCCCCCCCCC[C@H]1CC(=O)NC[C@H](O[Si](C)(C)C(C)(C)C)[C@H](C)C(=O)NCC/C=C/C=C/C=C/C(=O)O1` [cis-31d -> 32d (FR1, C11H23 side chain)], the ring closure, isolated yield (from CCCCCCCCCCC[C@@H](CC(=O)NC[C@H](O[Si](C)(C)C(C)(C)C)[C@H](C)C(=O)NCC/C=C/B1OC(C)(C)C(C)(C)O1)OC(=O)C1C=CC1Cl) came to 56%.
As for `CCCCCCC/C=C/C=C/C=C(\C)[C@H]1CC(=O)NC[C@H](O[Si](C)(C)C(C)(C)C)[C@H](C)C(=O)NCC/C=C/C=C/C=C/C(=O)O1` [cis-31c -> 32c (FR256523)], the ring closure, isolated yield (from CCCCCCC/C=C/C=C/C=C(\C)[C@@H](CC(=O)NC[C@H](O[Si](C)(C)C(C)(C)C)[C@H](C)C(=O)NCC/C=C/B1OC(C)(C)C(C)(C)O1)OC(=O)C1C=CC1Cl) turned out to be 71%.
For the compound `C/C(=C\Br)[C@H]1CC(=O)NC[C@H](O[Si](C)(C)C(C)(C)C)[C@H](C)C(=O)NCC/C=C/C=C/C=C/C(=O)O1` [cis-31m -> 32m (FR10, bromovinyl)], the ring closure, isolated yield (from C/C(=C\Br)[C@@H](CC(=O)NC[C@H](O[Si](C)(C)C(C)(C)C)[C@H](C)C(=O)NCC/C=C/B1OC(C)(C)C(C)(C)O1)OC(=O)C1C=CC1Cl) was found to be 54%.
For the compound `C/C(=C\C=C\C(F)(F)F)[C@H]1CC(=O)NC[C@H](O[Si](C)(C)C(C)(C)C)[C@H](C)C(=O)NCC/C=C/C=C/C=C/C(=O)O1`, under “from C/C(=C\C=C\C(F)(F)F)[C@@H](CC(=O)NC[C@H](O[Si](C)(C)C(C)(C)C)[C@H](C)C(=O)NCC/C=C/B1OC(C)(C)C(C)(C)O1)OC(=O)C1C=CC1Cl”, the ring closure, isolated yield was 73%.
